Measurements: ChEMBL document CHEMBL1145559, “Design, synthesis and in vitro antiprotozoal activity of benzimidazole-pentamidine hybrids” (Bioorg Med Chem Lett, 2008)
pIC50: −log10 of the molar value. Calls of active or inactive are those of the source. The rule behind the calls is not given here.

Assays:
[1] = system: Plasmodium berghei; assay: Antiprotozoal activity against Plasmodium berghei; format: functional, organism-based
[2] = system: Giardia intestinalis; assay: Antiprotozoal activity against Giardia lamblia; format: functional, organism-based; details: Giardia duodenalis
[3] = system: Entamoeba histolytica; assay: Antiprotozoal activity against Entamoeba histolytica; format: functional, organism-based
[4] = system: Leishmania mexicana; assay: Antiprotozoal activity against Leishmania mexicana; format: functional, organism-based
[5] = system: Trichomonas vaginalis; assay: Antiprotozoal activity against Trichomonas vaginalis; format: functional, organism-based
[6] = system: Plasmodium berghei; assay: Antiprotozoal activity against Plasmodium berghei at 100 uM; format: functional
[7] = system: Plasmodium berghei; assay: Antiprotozoal activity as cell damage against Plasmodium berghei; format: functional, organism-based

Row | SMILES | pIC50 [1] | pIC50 [2] | pIC50 [3] | pIC50 [4] | pIC50 [5] | inhibition at 100 µM [6] [%] | Activity [6] | Activity [7]
1 | O=[N+]([O-])c1ccc2[nH]c(-c3ccc(OCCCCCOc4ccc(-c5nc6cc([N+](=O)[O-])ccc6[nH]5)cc4)cc3)nc2c1 | 4.00 | 5.13 | 4.99 | < 4.30 | 5.45 | 46 |  | 
2 | Cc1ccc2[nH]c(-c3ccc(OCCCCCOc4ccc(-c5nc6cc(C)ccc6[nH]5)cc4)cc3)nc2c1 | 4.00 | 5.31 | 6.82 | 6.43 | 5.38 | 43 |  | 
3 | COc1cc(-c2nc3cc(C)ccc3[nH]2)ccc1OCCCCCOc1ccc(-c2nc3cc(C)ccc3[nH]2)cc1OC |  | 6.43 | 5.35 | < 4.30 | 5.99 |  | inactive | 
4 | COc1cc(-c2nc3ccccc3[nH]2)ccc1OCCCCCOc1ccc(-c2nc3ccccc3[nH]2)cc1OC | 3.78 | 4.89 | 5.29 | < 4.30 | 5.21 |  |  | 
5 | Cc1ncc([N+](=O)[O-])n1CCO [METRONIDAZOLE] |  | 5.89 | 6.11 |  | 6.54 |  |  | 
6 | COc1cc(-c2nc3cc([N+](=O)[O-])ccc3[nH]2)ccc1OCCCCCOc1ccc(-c2nc3cc([N+](=O)[O-])ccc3[nH]2)cc1OC | 4.59 | 5.47 | 4.92 | 4.77 | 6.10 |  |  | 
7 | N=C(N)c1ccc(OCCCCCOc2ccc(C(=N)N)cc2)cc1 [PENTAMIDINE] |  | 5.39 | 4.93 | 5.02 | 5.42 |  |  | Active

Second part, led by results:

Row | pIC50 [1] | pIC50 [2] | pIC50 [3] | pIC50 [4] | pIC50 [5] | SMILES | inhibition at 100 µM [6] [%] | Activity [6] | Activity [7]
8 | 4.46 | 6.36 | 6.96 | 6.15 | 6.79 | COc1ccc2[nH]c(-c3ccc(OCCCCCOc4ccc(-c5nc6cc(OC)ccc6[nH]5)cc4)cc3)nc2c1 |  |  | 
9 | 4.00 | 5.74 | 6.36 | 5.97 | 5.50 | c1ccc2[nH]c(-c3ccc(OCCCCCOc4ccc(-c5nc6ccccc6[nH]5)cc4)cc3)nc2c1 | 37 |  | 
10 | 4.62 | 5.28 | 6.55 | < 4.30 | 5.20 | COc1ccc2[nH]c(-c3ccc(OCCCCCOc4ccc(-c5nc6cc(OC)ccc6[nH]5)cc4OC)c(OC)c3)nc2c1 |  |  | 
11 | 4.20 |  |  | < 4.30 |  | COc1cc(-c2nc3cc(C(F)(F)F)ccc3[nH]2)ccc1OCCCCCOc1ccc(-c2nc3cc(C(F)(F)F)ccc3[nH]2)cc1OC |  |  | 
12 | 5.19 | 5.02 | 5.14 | < 4.30 | 5.30 | FC(F)(F)c1ccc2[nH]c(-c3ccc(OCCCCCOc4ccc(-c5nc6cc(C(F)(F)F)ccc6[nH]5)cc4)cc3)nc2c1 |  |  | 
